Results as given in US20150374649A1, “Treatment of Severe Hypertriglyceridemia” (CymaBay Therapeutics, Inc, priority 2014, published 2015).

Legend:
[1] = target: T1, PPARα (Homo sapiens, UniProt Q07869); experiment: Specificity for PPARδ compared with PPARα; type: biochemical; conditions: PPARδ versus PPARα
T1 sequence (Q07869 1-468): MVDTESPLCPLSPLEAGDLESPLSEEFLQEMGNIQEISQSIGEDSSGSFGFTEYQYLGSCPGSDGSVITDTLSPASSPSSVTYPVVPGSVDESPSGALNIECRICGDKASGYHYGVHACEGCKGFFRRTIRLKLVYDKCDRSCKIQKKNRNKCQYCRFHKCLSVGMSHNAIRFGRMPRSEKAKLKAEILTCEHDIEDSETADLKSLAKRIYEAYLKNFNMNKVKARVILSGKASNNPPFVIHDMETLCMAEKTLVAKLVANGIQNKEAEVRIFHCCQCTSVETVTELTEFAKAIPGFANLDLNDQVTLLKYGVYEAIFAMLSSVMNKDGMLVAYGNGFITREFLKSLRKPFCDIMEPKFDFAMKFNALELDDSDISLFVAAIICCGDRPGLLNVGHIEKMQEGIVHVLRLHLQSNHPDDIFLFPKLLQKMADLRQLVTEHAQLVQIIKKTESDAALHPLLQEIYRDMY

[2] = tested on: adult subjects with severe hypertriglyceridemia; experiment: 12-week open label dose-escalation study in severe hypertriglyceridemia; type: in vivo, human
Procedure: The study is a 12-week interventional, open label (single blind), dose-escalation study using adult subjects (for example 30, preferably with at least one-fourth the number having Type I hyperlipoproteinemia and at least one-fourth the number having Type V hyperlipoproteinemia) with severe hypertriglyceridemia (fasting TG levels of at least 1000 mg/dL), on stable therapy (fibrates, niacin, O3FA) or refractory to such therapy. Exclusion criteria include stage 3 or 4 heart failure, uncontrolled diabetes mellitus in the month before screening, use of corticosteroids in the month before screening, estrogen treatments (contraceptive or hormone replacement) unless on a stable dose in the two months before screening, a history of pancreatic disease during the six months before screening, and current apheresis treatments. Subjects are assessed for fasting TGs and other lipids at baseline.

[3] = tested on: dyslipidemic overweight patients (mixed dyslipidemia); conditions: cited from earlier work
[4] = tested on: hypertriglyceridemia patients; conditions: cited from earlier work

SMILES	specificity compared with PPARα [1] [fold]	fasting TGs versus baseline ([2]; 50, 100, 200 mg/day orally, four weeks each, reduction increasing with dose)	percentage of subjects at risk of acute pancreatitis and associated adverse events ([2]; subjects with SHTG)	reduction of TGs over the total population treated ([3]; 50 mg/day and 100 mg/day) [%]	reduction of TGs ([3]; compared to placebo, 50 or 100 mg once daily alone and in combination with ATV 20 mg, 8 weeks, P<0.05)	insulin sensitivity ([3]; homeostatic model assessment-insulin resistance, fasting plasma glucose, insulin lowered)	GGT and ALP ([3]; in vivo)	effect on small dense LDL particles ([3]; in vivo)	liver enzyme levels ([3]; in vivo)	percentage reduction in TGs, tertile with lowest starting TG levels ([3]; starting TG 125-155 mg/dL)	percentage reduction in TGs, tertile with highest starting TG levels ([3]; starting TG 279-324 mg/dL)	decrease of TG levels ([4]; high-dose niacin (at least 1500 mg/day))	raise of HDL-C levels ([4]; human, in vivo)
CCO[C@H](COc1ccc(C(F)(F)F)cc1)CSc1ccc(OCC(=O)O)c(C)c1 [MBX-8025, (R)-2-(4-((2-ethoxy-3-(4-(trifluoromethyl)phenoxy)propyl)thio)-2-methylphenoxy)acetic acid]	> 600	reduction in fasting TGs from baseline	significantly reduce	32	26-30%	increases insulin sensitivity	lowers GGT and ALP	selectively depletes small dense LDL particles	reduced liver enzyme levels	near zero	over 40%	–	–
O=C(O)c1cccnc1 [niacin, pyridine-3-carboxylic acid]	–	–	–	–	–	–	–	–	–	–	–	at least 40%	at least 40%
